Where only a bound is given, the exact number is not on record here.

T1 sequence (O14842 whole entry): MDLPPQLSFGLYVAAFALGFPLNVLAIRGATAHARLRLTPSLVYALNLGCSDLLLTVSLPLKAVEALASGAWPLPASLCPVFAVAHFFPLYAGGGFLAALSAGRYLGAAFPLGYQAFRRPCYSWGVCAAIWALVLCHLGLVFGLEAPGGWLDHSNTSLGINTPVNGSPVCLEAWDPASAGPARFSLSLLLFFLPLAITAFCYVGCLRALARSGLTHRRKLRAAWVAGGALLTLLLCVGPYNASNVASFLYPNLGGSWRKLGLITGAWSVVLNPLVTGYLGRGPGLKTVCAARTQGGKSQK

This assay concerns the target T1, human GPR40 (Homo sapiens, UniProt O14842).
T1 construct: expressed in transfected cells; host or cells: CHO cells
Briefly: Cell-based aequorin assay. The conditions noted are these: CHO cells stably transfected with GPR40 and aequorin; 0.01% HSA; aequorin luminescence; read-out: Relative EC50. The method, then:
Cell-based aequorin assays were employed to characterize the modulatory activity of compounds on the GPR40 signaling pathway. In an exemplary assay, CHO cells were stably transfected with both GPR40 and Aequorin (Euroscreen). Cells were detached from the tissue culture dish with 2 mL of trypsin (0.25% (w/v)). Trypsinization was halted with 28 mL of Hanks Buffered Salt Solution containing 20 mM Hepes (H/HBSS) and 0.01% fatty acid-free human serum albumin (HSA). Coelantrazine is added to 1 ug/mL, and the cells were incubated for 2 hours at room temperature. Compounds were dissolved in DMSO for preparation of 10 mM stock solutions. Compounds were diluted in H/HBSS containing 0.01% HSA. Serial dilutions of the test compounds were prepared to determine dose response.
Aequorin luminescence measurements were made using an EG&G Berthold 96-well luminometer, and the response was measured over a 20 second interval after cells and compounds were mixed. The maximum relative light units was plotted to determine dose response. The EC50 (effective concentration to reach 50% maximal response) was determined from the dose response plot.
Table 1 presents representative data (EC50 values) obtained for exemplary compounds of the invention for the relative activation of human GPR40. […]
As to `CC#C[C@@H](CC(=O)O)c1ccc(O[C@H]2CCc3cc(Br)ccc32)cc1` [Example 45, (S)-3-(4-((S)-5-bromo-2,3-dihydro-1H-inden-1-yloxy)phenyl)hex-4-ynoic acid], the EC50 (usually the concentration giving half of the maximal effect) lay in the range of 10 to 100 nM.
The figure for `CC#C[C@@H](CC(=O)O)c1ccc(OC2CCc3ccccc32)cc1` (stereo partly drawn) [Example 46, (3S)-3-(4-(2,3-Dihydro-1H-inden-1-yloxy)phenyl)hex-4-ynoic acid] is 10 to 100 nM; for `O=C(O)CC(c1ccc(OC2CCc3cc(Br)ccc32)cc1)n1cccn1` (centres unmarked) [Example 47, 3-(4-(5-Bromo-2,3-dihydro-1H-inden-1-yloxy)phenyl)-3-(1H-pyrazol-1-yl)propanoic acid] it is 100 to 1000 nM; for `CC#C[C@@H](CC(=O)O)c1ccc(OC2CCc3cc(-c4cccc(OC(F)(F)F)c4)ccc32)cc1` (stereo partly drawn) [Example 50, (3S)-3-(4-(5-(3-(Trifluoromethoxy)phenyl)-2,3-dihydro-1H-inden-1-yloxy)phenyl)hex-4-ynoic acid] it is 10 to 100 nM.
The result for `Cc1cnc(C(CC(=O)O)c2ccc(OC3Cc4ccccc4C3)cc2)o1` (centres unmarked) [Example 51, 3-(4-(2,3-Dihydro-1H-inden-2-yloxy)phenyl)-3-(5-methyloxazol-2-yl)propanoic acid] reads 100 to 1000 nM; that for `CC#C[C@@H](CC(=O)O)c1ccc(OC2CCc3cc(C#N)ccc32)cc1` (stereo partly drawn) [Example 54, (3S)-3-(4-(5-Cyano-2,3-dihydro-1H-inden-1-yloxy)phenyl)hex-4-ynoic acid], 10 to 100 nM; that for `CC#C[C@@H](CC(=O)O)c1ccc(OC2CCc3cc(-c4cc(OC)ccc4F)ccc32)cc1` (stereo partly drawn) [Example 55, (3S)-3-(4-(5-(2-Fluoro-5-methoxyphenyl)-2,3-dihydro-1H-inden-1-yloxy)phenyl)hex-4-ynoic acid], 100 to 1000 nM.
The result for `COc1ccc(F)c(-c2ccc3c(c2)CCC3Oc2ccc([C@H](C=C(C)C)CC(=O)O)cc2)c1` (some centres unmarked) [Example 56] reads 1000 to 10000 nM; that for `COc1ccc(F)c(-c2ccc3c(c2)CCC3Oc2ccc([C@@H](C=C(C)C)CC(=O)O)cc2)c1` (some centres unmarked) [Example 57], 100 to 1000 nM; that for `Cn1ccnc1[C@@H](CC(=O)O)c1ccc(OC2CCc3cc(Cl)ccc32)cc1` (stereo partly drawn) [Example 58, (3S)-3-(4-(5-Chloro-2,3-dihydro-1H-inden-1-yloxy)phenyl)-3-(1-methyl-1H-imidazol-2-yl)propanoic acid], 1000 to 10000 nM.
On to `CC#C[C@H](CC(=O)O)c1ccc(OC2CCc3cc(-c4cccc(OCC)c4)ccc32)cc1` (stereo partly drawn) [Example 59, (3R)-3-(4-(5-(3-Ethoxyphenyl)-2,3-dihydro-1H-inden-1-yloxy)phenyl)hex-4-ynoic acid], for which the EC50 was more than 10000 nM.
The figure for `CC#C[C@H](CC(=O)O)c1ccc(OC2CCc3cc(-c4ccc5c(c4)OCO5)ccc32)cc1` (stereo partly drawn) [Example 60, (3R)-3-(4-(5-(Benzo[d][1,3]dioxol-5-yl)-2,3-dihydro-1H-inden-1-yloxy)phenyl)hex-4-ynoic acid] is more than 10000 nM.
The figure for `CC#C[C@H](CC(=O)O)c1ccc(OC2CCc3cc(-c4cccc(OC)c4OC)ccc32)cc1` (stereo partly drawn) [Example 61, (3R)-3-(4-(5-(2,3-Dimethoxyphenyl)-2,3-dihydro-1H-inden-1-yloxy)phenyl)hex-4-ynoic acid] is more than 10000 nM; for `CC#C[C@H](CC(=O)O)c1ccc(OC2CCc3cc(-c4cccc(OC)c4)ccc32)cc1` (stereo partly drawn) [Example 62, (3R)-3-(4-(5-(3-Methoxyphenyl)-2,3-dihydro-1H-inden-1-yloxy)phenyl)hex-4-ynoic acid] it is more than 10000 nM; for `CC#C[C@H](CC(=O)O)c1ccc(OC2CCc3cc(-c4cccc(OC(F)(F)F)c4)ccc32)cc1` (stereo partly drawn) [Example 63, (3R)-3-(4-(5-(3-(trifluoromethoxy)phenyl)-2,3-dihydro-1H-inden-1-yloxy)phenyl)hex-4-ynoic acid] it is more than 10000 nM.
Turning to `CC#C[C@H](CC(=O)O)c1ccc(OC2CCc3cc(-c4c(C)cc(C)cc4C)ccc32)cc1` (stereo partly drawn) [Example 64, (3R)-3-(4-(5-Mesityl-2,3-dihydro-1H-inden-1-yloxy)phenyl)hex-4-ynoic acid], the EC50 was more than 10000 nM.
The figure for `CC#C[C@H](CC(=O)O)c1ccc(OC2CCc3cc(-c4ccccc4OCC)ccc32)cc1` (stereo partly drawn) [Example 65, (3R)-3-(4-(5-(2-Ethoxyphenyl)-2,3-dihydro-1H-inden-1-yloxy)phenyl)hex-4-ynoic acid] is more than 10000 nM; for `CC#C[C@H](CC(=O)O)c1ccc(OC2CCc3cc(-c4cc(OCC)ccc4F)ccc32)cc1` (stereo partly drawn) [Example 66, (3R)-3-(4-(5-(5-Ethoxy-2-fluorophenyl)-2,3-dihydro-1H-inden-1-yloxy)phenyl)hex-4-ynoic acid] it is more than 10000 nM; for `CC#C[C@H](CC(=O)O)c1ccc(OC2CCc3cc(-c4cccc(OC)c4F)ccc32)cc1` (stereo partly drawn) [Example 67, (3R)-3-(4-(5-(2-Fluoro-3-methoxyphenyl)-2,3-dihydro-1H-inden-1-yloxy)phenyl)hex-4-ynoic acid] it is more than 10000 nM.
The figure for `CC#C[C@H](CC(=O)O)c1ccc(OCC2CCCCC2)cc1` [Example 68, (R)-3-(4-(Cyclohexylmethoxy)phenyl)hex-4-ynoic acid] is 1000 to 10000 nM.
The figure for `CC#C[C@@H](CC(=O)O)c1ccc(OCCC2CCCCC2)cc1` [Example 69, (S)-3-(4-(2-cyclohexylethoxy)phenyl)hex-4-ynoic acid] is 100 to 1000 nM; for `CC#C[C@@H](CC(=O)O)c1ccc(OCCC2CCCC2)cc1` [Example 70, (S)-3-(4-(2-cyclopentylethoxy)phenyl)hex-4-ynoic acid] it is 100 to 1000 nM.
As for `Cn1ccnc1[C@@H](CC(=O)O)c1ccc(OCc2ccc3c(c2)C(C)(C)CCC3(C)C)cc1` [Example 71, (S)-3-(1-Methyl-1H-imidazol-2-yl)-3-[4-(5,5,8,8-tetramethyl-5,6,7,8-tetrahydro-naphthalen-2-ylmethoxy)-phenyl]-propionic acid], the EC50 was 100 to 1000 nM.
Take `Cn1ncnc1[C@@H](CC(=O)O)c1ccc(OCc2ccc3c(c2)C(C)(C)CCC3(C)C)cc1` [Example 72, (S)-3-(2-Methyl-2H-[1,2,4]triazol-3-yl)-3-[4-(5,5,8,8-tetramethyl-5,6,7,8-tetrahydro-naphthalen-2-ylmethoxy)-phenyl]-propionic acid]: the EC50 was 100 to 1000 nM.
The result for `Cn1nncc1[C@@H](CC(=O)O)c1ccc(OCc2ccc3c(c2)C(C)(C)CCC3(C)C)cc1` [Example 73, (S)-3-(3-methyl-3H-1,2,3-triazol-4-yl)-3-(4-((5,5,8,8-tetramethyl-5,6,7,8-tetrahydronaphthalen-2-yl)methoxy)phenyl)propanoic acid] reads 10 to 100 nM.
In the case of `Cn1cncc1[C@@H](CC(=O)O)c1ccc(OCc2ccc3c(c2)C(C)(C)CCC3(C)C)cc1` [Example 74, (S)-3-(1-methyl-1H-imidazol-5-yl)-3-(4-((5,5,8,8-tetramethyl-5,6,7,8-tetrahydronaphthalen-2-yl)methoxy)phenyl)propanoic acid], the EC50 lay within 100 to 1000 nM.
The result for `CC1(C)CCC(C)(C)c2cc(COc3ccc([C@H](CC(=O)O)c4cnco4)cc3)ccc21` [Example 75, (S)-3-(Oxazol-5-yl)-3-(4-((5,5,8,8-tetramethyl-5,6,7,8-tetrahydronaphthalen-2-yl)methoxy)phenyl)propanoic acid] reads 100 to 1000 nM.
The result for `CC1(C)CCC(C)(C)c2cc(COc3ccc([C@H](CC(=O)O)c4ccon4)cc3)ccc21` [Example 76, (S)-3-(Isoxazol-3-yl)-3-(4-((5,5,8,8-tetramethyl-5,6,7,8-tetrahydronaphthalen-2-yl)methoxy)phenyl)propanoic acid] reads 10 to 100 nM; that for `CC1(C)CCC(C)(C)c2cc(COc3ccc([C@@H](CC(=O)O)c4ccon4)cc3)ccc21` [Example 77, (R)-3-(Isoxazol-3-yl)-3-(4-((5,5,8,8-tetramethyl-5,6,7,8-tetrahydronaphthalen-2-yl)methoxy)phenyl)propanoic acid], 1000 to 10000 nM; that for `Cn1ccnc1[C@@H](CC(=O)O)c1ccc(OCc2ccc3c(c2)CCCC3)cc1` [Example 80, (S)-3-(i-Methyl-1H-imidazol-2-yl)-3-[4-(5,6,7,8-tetrahydro-naphthalen-2-ylmethoxy)-phenyl]-propionic acid], 100 to 1000 nM.
The figure for `Cn1nnnc1[C@@H](CC(=O)O)c1ccc(OCc2ccc3c(c2)C(C)(C)CCC3(C)C)cc1` [Example 81, (S)-3-(1-Methyl-1H-tetrazol-5-yl)-3-[4-(5,5,8,8-tetramethyl-5,6,7,8-tetrahydro-naphthalen-2-ylmethoxy)-phenyl]-propionic acid] is 10 to 100 nM; for `CC1(C)CCC(C)(C)c2cc(COc3ccc([C@H](CC(=O)O)c4ncco4)cc3)ccc21` [Example 82, (S)-3-Oxazol-2-yl-3-[4-(5,5,8,8-tetramethyl-5,6,7,8-tetrahydro-naphthalen-2-ylmethoxy)-phenyl]-propionic acid] it is 10 to 100 nM; for `Cn1cnnc1[C@H](CC(=O)O)c1ccc(OCc2ccc3c(c2)C(C)(C)CCC3(C)C)cc1` [Example 83] it is more than 10000 nM.
For the compound `Cn1cnnc1[C@@H](CC(=O)O)c1ccc(OCc2ccc3c(c2)C(C)(C)CCC3(C)C)cc1` [Example 84], the EC50 fell in the range of 100 to 1000 nM.
Consider `CC1(C)CCC(C)(C)c2cc(COc3ccc(C(CC(=O)O)C4=NOCC4)cc3)ccc21` (centres unmarked) [Example 85, 3-(4,5-Dihydroisoxazol-3-yl)-3-(4-((5,5,8,8-tetramethyl-5,6,7,8-tetrahydronaphthalen-2-yl)methoxy)phenyl)propanoic acid], for which the EC50 fell in the range of 100 to 1000 nM.

The record behind these values is patent US7582803B2 (Amgen Inc., priority 2005, dated 2009).
